In article PMC5688156, “The natural product carolacton inhibits folate-dependent C1 metabolism by targeting FolD/MTHFD” (Nature Communications, 2017):

Molecular target: T1, hsMTHFD2 (Homo sapiens, UniProt P13995)
T1 construct: His-tag (vector pHis-TEV) (cleaved yes); made in house; host or cells: E. coli BL21 (DE3)
T1 sequence (P13995 36-350): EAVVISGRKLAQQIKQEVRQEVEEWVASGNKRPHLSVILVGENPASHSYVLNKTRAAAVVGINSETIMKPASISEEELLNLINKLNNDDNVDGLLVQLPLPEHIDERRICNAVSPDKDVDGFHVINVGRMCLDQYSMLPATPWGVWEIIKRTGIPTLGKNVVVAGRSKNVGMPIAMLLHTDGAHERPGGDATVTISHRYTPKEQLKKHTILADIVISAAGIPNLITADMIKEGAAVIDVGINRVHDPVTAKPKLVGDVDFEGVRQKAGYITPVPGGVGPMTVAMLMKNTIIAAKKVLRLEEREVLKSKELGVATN
Assay: SPR binding to hsMTHFD2
Method: All surface plasmon resonance (SPR) experiments described in this study were performed on a Biacore X100 system. Different FolDs with or without His-tag were coupled on CM5 sensor chips (GE Healthcare) by the amine coupling method using a kit from GE Healthcare Life Sciences (Freiburg, Germany). A pH scouting process was performed before protein immobilization to test the most appropriate buffer and the protein concentration for protein coupling. Finally, 20 μg/mL of ecFolD in 10 mM maleate buffer (pH 6.8), 30 μg/mL of ecFolD Q98H in 10 mM maleate buffer (pH 6.3), 40 μg/mL of ecFolD K54N in 10 mM maleate buffer (pH 5.8), 20 μg/mL of spFolD in 10 mM maleate buffer (pH 6.0) and 15 μg/mL of MTHFD2 (His-tag cleaved) in 10 mM maleate buffer (pH 6.8) were used for coupling. In the protein immobilization procedure, the contact time was calculated based on the pH scouting results to achieve ~3000–5000 relative resonance units (RU). The buffer used in the SPR assays was 1× HBS-P buffer (10 mM HEPES pH 7.4, 150 mM NaCl, 0.05% Tween 20). The 1 mM stock solution of carolacton was prepared in 1× HBS-P buffer and diluted to different concentration ranges by two-fold serial dilution. In the SPR assay, the association time was 180 s and the dissociation time was 600 s. Data analysis was performed using the Biacore evaluation software. […]

CO[C@H](CC(=O)O)[C@@H](C)C(=O)[C@H](C)/C=C(\C)[C@H]1OC(=O)[C@H](O)[C@H](O)/C=C/[C@H](C)CCC[C@@H]1C [carolacton]
koff: 0.0222 s⁻¹ | Kd (1:1 interaction model fit of association and dissociation signals): 19 nM
